Laboratory results taken from the supplement of paper PMC9512659.

Key:
[1] = system: Mycobacterium tuberculosis Erdman (pMV306hsp+LuxG13); assay: log2 fractional inhibitory concentration at 90% inhibition (log2 FIC); higher = more antagonistic
Protocol: (§1)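 DiaMOND pairwise dose responses of an equipotent two-drug mixture (1.5-fold, 10-dose series) against autoluminescent M. tuberculosis Erdman in 384-well plates. Growth inhibition was read by OD600 (luminescence for dormancy) in seven media at a constant and a terminal time point; metrics are means of at least biological duplicates. Einf and AUC25 higher = more potent; GRinf lower = more potent; log2FIC negative = synergy.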

[2] = system: Mycobacterium tuberculosis Erdman (pMV306hsp+LuxG13); assay: log2 fractional inhibitory concentration at 50% inhibition (log2 FIC); higher = more antagonistic
Protocol: as §1

[3] = system: Mycobacterium tuberculosis Erdman (pMV306hsp+LuxG13); assay: AUC25, normalised area under the dose-response curve up to IC25 (normalised AUC (unitless)); higher = more potent
Protocol: as §1

[4] = system: Mycobacterium tuberculosis Erdman (pMV306hsp+LuxG13); assay: GRinf, normalised growth-rate inhibition at infinite dose (GR value (unitless, negative = killing)); higher = less potent
Protocol: as §1

[5] = system: Mycobacterium tuberculosis Erdman (pMV306hsp+LuxG13); assay: Einf, effect of the drug pair at infinite dose (maximum growth inhibition) (fraction inhibition (0-1)); higher = more potent; extreme values may be limits of the assay
Protocol: as §1

COc1nc2ccc(Br)cc2cc1[C@@H](c1ccccc1)[C@@](O)(CCN(C)C)c1cccc2ccccc12 [bedaquiline] + CC(C)=CCC/C(C)=C/CNCCNC1C2CC3CC(C2)CC1C3 [SQ109]
Details	AUC25, [3]	Einf, [5]	GRinf, [4]	log2 fractional inhibitory concentration, [1]	log2 fractional inhibitory concentration, [2]
growth medium: butyrate 5 mM, time point: constant time point	0.0731	0.963	-0.11	0.414	0.85
growth medium: butyrate 5 mM, time point: terminal time point	0.0507	0.979	-0.0824	0.616	0.817
growth medium: cholesterol 0.05 mM, time point: constant time point	0.085	0.82	-0.737	–	0.241
growth medium: cholesterol 0.2 mM (cholesterol-high), time point: constant time point	0.0719	1	-0.847	0.667	0.546
growth medium: cholesterol 0.2 mM (cholesterol-high), time point: terminal time point	0.0884	1	-0.779	0.799	0.31
growth medium: standard 7H9 OADC glycerol, time point: constant = terminal time point (4.2 d)	0.0609	0.967	-0.158	–	0.0969
growth medium: valerate 0.1%, time point: constant time point	0.0593	0.996	-0.151	-0.0839	0.191
growth medium: valerate 0.1%, time point: terminal time point	0.047	0.993	-0.127	-0.384	0.276

growth medium: hypoxic dormancy (butyrate + nitrate), then recovery
Details	AUC25, [3]	Einf, [5]	GRinf, [4]	log2 fractional inhibitory concentration, [1]	log2 fractional inhibitory concentration, [2]
time point: constant time point	0.0746	0.992	-0.388	1.04	1.24
time point: terminal time point	0.0292	0.964	0.0989	-0.972	-0.811

CO[C@H]1/C=C/O[C@@]2(C)Oc3c(C)c(O)c4c(O)c(c(/C=N/N5CCN(C)CC5)c(O)c4c3C2=O)NC(=O)/C(C)=C\C=C\[C@H](C)[C@H](O)[C@@H](C)[C@@H](O)[C@@H](C)[C@H](OC(C)=O)[C@@H]1C [rifampicin] + CC(=O)NC[C@H]1CN(c2ccc(N3CCSCC3)c(F)c2)C(=O)O1 [sutezolid]
Details	AUC25, [3]	Einf, [5]	GRinf, [4]	log2 fractional inhibitory concentration, [1]	log2 fractional inhibitory concentration, [2]
growth medium: acidic pH 5.7, glycerol, time point: constant time point	0.0817	0.853	-0.111	–	0.233
growth medium: acidic pH 5.7, glycerol, time point: terminal time point	0.076	0.977	-0.205	-0.595	0.315
growth medium: butyrate 5 mM, time point: constant time point	0.0989	0.911	0.0134	–	-0.239
growth medium: butyrate 5 mM, time point: terminal time point	0.0783	0.953	-0.0141	-0.298	-0.147
growth medium: cholesterol 0.2 mM (cholesterol-high), time point: constant time point	0.0474	0.988	-0.878	-0.588	-0.0927
growth medium: cholesterol 0.2 mM (cholesterol-high), time point: terminal time point	0.0807	1	-0.728	-0.315	-0.136
growth medium: standard 7H9 OADC glycerol, time point: constant = terminal time point (4.2 d)	0.0433	0.969	-0.0246	-0.846	-0.167
growth medium: valerate 0.1%, time point: constant time point	0.11	0.962	0.0594	–	1.45
growth medium: valerate 0.1%, time point: terminal time point	0.0701	0.979	-0.0207	0.302	0.427

growth medium: hypoxic dormancy (butyrate + nitrate), then recovery
Details	AUC25, [3]	Einf, [5]	GRinf, [4]	log2 fractional inhibitory concentration, [1]	log2 fractional inhibitory concentration, [2]
time point: constant time point	0.0508	0.978	0.206	-0.578	-0.575
time point: terminal time point	0.06	0.971	0.237	-0.678	0.255

COc1nc2ccc(Br)cc2cc1[C@@H](c1ccccc1)[C@@](O)(CCN(C)C)c1cccc2ccccc12 [bedaquiline] + CC(=O)NC[C@H]1CN(c2ccc(N3CCSCC3)c(F)c2)C(=O)O1 [sutezolid]
Details	AUC25, [3]	Einf, [5]	GRinf, [4]	log2 fractional inhibitory concentration, [1]	log2 fractional inhibitory concentration, [2]
growth medium: acidic pH 5.7, glycerol, time point: constant time point	0.107	0.875	-0.198	–	-0.156
growth medium: acidic pH 5.7, glycerol, time point: terminal time point	0.0983	0.978	-0.241	-0.436	-0.088
growth medium: butyrate 5 mM, time point: constant time point	0.0619	0.885	0.0684	–	2.21
growth medium: butyrate 5 mM, time point: terminal time point	0.0554	0.949	0.0372	0.353	2.08
growth medium: cholesterol 0.05 mM, time point: constant time point	0.0778	1	-0.927	0.332	0.352
growth medium: cholesterol 0.05 mM, time point: terminal time point	0.132	1	-0.972	0.434	-0.0748
growth medium: cholesterol 0.2 mM (cholesterol-high), time point: constant time point	0.0763	1	-1	0.279	-0.0255
growth medium: cholesterol 0.2 mM (cholesterol-high), time point: terminal time point	0.115	1	-0.792	0.315	-0.681
growth medium: standard 7H9 OADC glycerol, time point: constant = terminal time point (4.2 d)	0.048	0.977	-0.0902	-1.24	-0.344
growth medium: valerate 0.1%, time point: constant time point	0.0485	0.864	-0.287	–	1.21
growth medium: valerate 0.1%, time point: terminal time point	0.09	0.991	-0.176	0.567	0.264

growth medium: hypoxic dormancy (butyrate + nitrate), then recovery
Details	AUC25, [3]	Einf, [5]	GRinf, [4]	log2 fractional inhibitory concentration, [1]	log2 fractional inhibitory concentration, [2]
time point: constant time point	0.0577	0.989	0.17	-0.371	-0.353
time point: terminal time point	0.0431	0.975	0.359	-0.465	0.424
